Test results taken from ChEMBL document CHEMBL1201862, “PubChem BioAssay data set” (2004).
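Exposure lasted 48 hours, with cells grown in 96-well plates and compounds tested at five concentrations. GI50: concentration for 50% inhibition of growth.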 Activity calls are given as the source filed them. Rule as the data show it: active = GI50 up to about 1.1 µM and inactive = higher.

Columns and labels:
Assay in all cases: DTP human tumour cell line panel, 48 h
786-0 = system: 786-0
SNB-75 = system: SNB-75
A498 = system: A498
SF-539 = system: SF-539
HOP-92 = system: HOP-92
MOLT-4 = system: MOLT-4
CCRF-CEM = system: CCRF-CEM
DU-145 = system: DU-145
A549 = system: A549
SW-620 = system: SW-620
NCI-H460 = system: NCI-H460
UO-31 = system: UO-31
PC-3 = system: PC-3
SF-295 = system: SF-295
HCC 2998 = system: HCC 2998
MDA-MB-435 = system: MDA-MB-435
Malme-3M = system: Malme-3M
U-251 = system: U-251
MDA-N = system: MDA-N

Question: What does the source list for `O=C(CC(=O)Nc1ccccc1Cl)NNC(c1cc(/N=N/c2ccc(Br)cc2)ccc1O)P(O)O` (configuration not stated)?
Answer: GI50 (786-0): 0.565 µM (active); GI50 (SNB-75): 1.62 µM (inactive); GI50 (A498): 2.27 µM (inactive); GI50 (SF-539): 0.951 µM (active); GI50 (HOP-92): 5.98 µM (inactive); GI50 (MOLT-4): 0.338 µM (active); GI50 (CCRF-CEM): 0.451 µM (active); GI50 (DU-145): 2.42 µM (inactive); GI50 (A549): 3.82 µM (inactive); GI50 (SW-620): 0.647 µM (active); GI50 (NCI-H460): 0.537 µM (active); GI50 (UO-31): 0.995 µM (active); GI50 (PC-3): 0.521 µM (active); GI50 (SF-295): 1.67 µM (inactive); GI50 (HCC 2998): 3.8 µM (inactive); GI50 (MDA-MB-435): 2.04 µM (inactive); GI50 (Malme-3M): 3.6 µM (inactive); GI50 (U-251): 1.54 µM (inactive); GI50 (MDA-N): 3.2 µM (inactive)

Question: Which results are given for `CCc1nc(Cl)nc(Cl)c1Cl`?
Answer: GI50 (786-0): 0.415 µM (active); GI50 (SNB-75): 5.53 µM (inactive); GI50 (A498): 4.94 µM (inactive); GI50 (SF-539): 3.36 µM (inactive); GI50 (HOP-92): 2.11 µM (inactive); GI50 (MOLT-4): 0.332 µM (active); GI50 (CCRF-CEM): 0.177 µM (active); GI50 (DU-145): 9.06 µM (inactive); GI50 (A549): 2.63 µM (inactive); GI50 (SW-620): 0.467 µM (active); GI50 (NCI-H460): 7.98 µM (inactive); GI50 (UO-31): 0.276 µM (active); GI50 (PC-3): 1.26 µM (inactive); GI50 (SF-295): 8.57 µM (inactive); GI50 (HCC 2998): 0.706 µM (active); GI50 (MDA-MB-435): 1.06 µM (active); GI50 (Malme-3M): 0.445 µM (active); GI50 (U-251): 1.39 µM (inactive); GI50 (MDA-N): 1.77 µM (inactive)

Question: `COc1cc(I)c2c3c1OC1C34CCN(C)C(C2)C4=CC(I)C1(OC)OC` (configuration not stated) was tested. Which GI50 (786-0) did it give?
Answer: 20.3 µM (inactive)

Question: And the GI50 (SNB-75)?
Answer: 15.9 µM (inactive)

Question: And the GI50 (A498)?
Answer: 32.2 µM (inactive)

Question: And the GI50 (SF-539)?
Answer: 18.1 µM (inactive)

Question: What about the GI50 (HOP-92) of the same compound?
Answer: 13.1 µM (inactive)

Question: What about the GI50 (MOLT-4) of the same compound?
Answer: 16.2 µM (inactive)

Question: And the GI50 (CCRF-CEM)?
Answer: 5.36 µM (inactive)

Question: What about the GI50 (DU-145) of the same compound?
Answer: 18.7 µM (inactive)

Question: What about the GI50 (A549) of the same compound?
Answer: 29.6 µM (inactive)

Question: What about the GI50 (SW-620) of the same compound?
Answer: 19 µM (inactive)

Question: What about the GI50 (NCI-H460) of the same compound?
Answer: 19.1 µM (inactive)

Question: And the GI50 (UO-31)?
Answer: 18.4 µM (inactive)

Question: And the GI50 (PC-3)?
Answer: 24.4 µM (inactive)

Question: What about the GI50 (SF-295) of the same compound?
Answer: 46.2 µM (inactive)

Question: What about the GI50 (HCC 2998) of the same compound?
Answer: 15.3 µM (inactive)

Question: What about the GI50 (MDA-MB-435) of the same compound?
Answer: 13.2 µM (inactive)

Question: And the GI50 (Malme-3M)?
Answer: 20.7 µM (inactive)

Question: What about the GI50 (U-251) of the same compound?
Answer: 18.3 µM (inactive)

Question: And the GI50 (MDA-N)?
Answer: 19.9 µM (inactive)

Question: `Cc1ccc(S(=O)(=O)NC(=O)C2=C(c3ccccc3)[N-]N(C)c3nc4cccc[n+]4nc32)cc1` was tested. Which GI50 (786-0) did it give?
Answer: > 100 µM (inactive)

Question: And the GI50 (SNB-75)?
Answer: 57.4 µM (inactive)

Question: What about the GI50 (A498) of the same compound?
Answer: > 100 µM (inactive)

Question: What about the GI50 (SF-539) of the same compound?
Answer: > 100 µM (inactive)

Question: What about the GI50 (HOP-92) of the same compound?
Answer: 12.6 µM (inactive)

Question: And the GI50 (MOLT-4)?
Answer: 99.5 µM (inactive)

Question: And the GI50 (CCRF-CEM)?
Answer: > 100 µM (inactive)

Question: What about the GI50 (DU-145) of the same compound?
Answer: > 100 µM (inactive)

Question: What about the GI50 (A549) of the same compound?
Answer: > 100 µM (inactive)

Question: And the GI50 (SW-620)?
Answer: 49.2 µM (inactive)

Question: And the GI50 (NCI-H460)?
Answer: > 100 µM (inactive)

Question: And the GI50 (UO-31)?
Answer: > 100 µM (inactive)

Question: What about the GI50 (PC-3) of the same compound?
Answer: > 100 µM (inactive)

Question: What about the GI50 (HCC 2998) of the same compound?
Answer: > 100 µM (inactive)

Question: What about the GI50 (MDA-MB-435) of the same compound?
Answer: > 100 µM (inactive)

Question: And the GI50 (Malme-3M)?
Answer: 99.3 µM (inactive)

Question: And the GI50 (U-251)?
Answer: > 100 µM (inactive)

Question: What about the GI50 (MDA-N) of the same compound?
Answer: > 100 µM (inactive)

Question: What does the source list for `O=C(CCl)N1CCCCC1C1(c2cc3ccccc3[nH]2)OCCO1` (configuration not stated)?
Answer: GI50 (786-0): 0.869 µM (active); GI50 (SNB-75): 2.65 µM (inactive); GI50 (A498): 4.6 µM (inactive); GI50 (SF-539): 1.65 µM (inactive); GI50 (HOP-92): 1 µM (active); GI50 (MOLT-4): 1.85 µM (inactive); GI50 (CCRF-CEM): 0.281 µM (active); GI50 (DU-145): 5.11 µM (inactive); GI50 (A549): 5.61 µM (inactive); GI50 (SW-620): 4.19 µM (inactive); GI50 (NCI-H460): 9.71 µM (inactive); GI50 (UO-31): 3.73 µM (inactive); GI50 (PC-3): 2.98 µM (inactive); GI50 (SF-295): 3.77 µM (inactive); GI50 (HCC 2998): 10.4 µM (inactive); GI50 (MDA-MB-435): 3.36 µM (inactive); GI50 (Malme-3M): 4.47 µM (inactive); GI50 (U-251): 2.86 µM (inactive); GI50 (MDA-N): 2.34 µM (inactive)

Question: How did the GI50 (786-0) turn out when `O=c1c(Sc2ncccn2)c(Sc2ncccn2)cnn1CCl` was run?
Answer: 1.87 µM (inactive)

Question: What about the GI50 (SNB-75) of the same compound?
Answer: 16.4 µM (inactive)

Question: What about the GI50 (A498) of the same compound?
Answer: 19.1 µM (inactive)

Question: What about the GI50 (SF-539) of the same compound?
Answer: 1.52 µM (inactive)

Question: What about the GI50 (HOP-92) of the same compound?
Answer: 2.59 µM (inactive)

Question: What about the GI50 (MOLT-4) of the same compound?
Answer: 2.72 µM (inactive)

Question: What about the GI50 (CCRF-CEM) of the same compound?
Answer: 0.295 µM (active)

Question: And the GI50 (DU-145)?
Answer: 2.64 µM (inactive)

Question: And the GI50 (A549)?
Answer: 16.4 µM (inactive)

Question: And the GI50 (SW-620)?
Answer: 2.4 µM (inactive)

Question: What about the GI50 (NCI-H460) of the same compound?
Answer: 14.7 µM (inactive)

Question: And the GI50 (UO-31)?
Answer: 1.7 µM (inactive)

Question: What about the GI50 (PC-3) of the same compound?
Answer: 2.48 µM (inactive)

Question: What about the GI50 (SF-295) of the same compound?
Answer: 15.3 µM (inactive)

Question: What about the GI50 (HCC 2998) of the same compound?
Answer: 10.8 µM (inactive)

Question: And the GI50 (MDA-MB-435)?
Answer: 1.77 µM (inactive)

Question: What about the GI50 (Malme-3M) of the same compound?
Answer: 2.05 µM (inactive)

Question: And the GI50 (U-251)?
Answer: 7.08 µM (inactive)

Question: What about the GI50 (MDA-N) of the same compound?
Answer: 2.17 µM (inactive)

Question: `CCN(CC)CCO/N=C1\CC[C@H]2[C@@H]3CCc4cc(OC)ccc4[C@H]3CC[C@]12C` was tested. Which GI50 (786-0) did it give?
Answer: 1.59 µM (inactive)

Question: And the GI50 (SNB-75)?
Answer: 2.44 µM (inactive)

Question: What about the GI50 (A498) of the same compound?
Answer: 3.18 µM (inactive)

Question: And the GI50 (SF-539)?
Answer: 1.97 µM (inactive)

Question: What about the GI50 (HOP-92) of the same compound?
Answer: 2.45 µM (inactive)

Question: What about the GI50 (MOLT-4) of the same compound?
Answer: 1.44 µM (inactive)

Question: What about the GI50 (CCRF-CEM) of the same compound?
Answer: 1.22 µM (inactive)

Question: And the GI50 (DU-145)?
Answer: 4.76 µM (inactive)

Question: And the GI50 (A549)?
Answer: 2.84 µM (inactive)

Question: What about the GI50 (SW-620) of the same compound?
Answer: 1.72 µM (inactive)

Question: And the GI50 (NCI-H460)?
Answer: 0.804 µM (active)

Question: What about the GI50 (UO-31) of the same compound?
Answer: 2.94 µM (inactive)

Question: And the GI50 (PC-3)?
Answer: 2.64 µM (inactive)

Question: And the GI50 (SF-295)?
Answer: 1.83 µM (inactive)

Question: What about the GI50 (HCC 2998) of the same compound?
Answer: 1.71 µM (inactive)

Question: What about the GI50 (MDA-MB-435) of the same compound?
Answer: 0.632 µM (active)

Question: And the GI50 (Malme-3M)?
Answer: 1.82 µM (inactive)

Question: And the GI50 (U-251)?
Answer: 2.59 µM (inactive)

Question: What about the GI50 (MDA-N) of the same compound?
Answer: 1.75 µM (inactive)
